From article PMC6695355, “Alanine Scanning Studies of the Antimicrobial Peptide Aurein 1.2” (Probiotics and Antimicrobial Proteins, 2018)
Converted amounts (≈) assume the structure as drawn. Where a SMILES comes first, the peptide text is derived from it.

How the values were obtained:
[1] = tested on: human red blood cells (RBCs); assay: Hemolysis assay; format: cell-based; conditions: red cells of human, 1 h
Method: The hemolytic activity of the peptides was determined using fresh human red blood cells (RBCs) collected from a healthy human donor according to the procedure described in the literature. Fresh RBCs with EDTA as anticoagulant were rinsed three times with a PBS by centrifugation at 800×g for 10 min and resuspension in PBS. Serial dilution of the peptides in PBS (1–256 μg/mL) on 96-well polystyrene plates was prepared and the stock solution of RBCs was added up to a final volume of 100 μL with a 4% concentration of erythrocytes (v/v). The control wells for 0 and 100% hemolysis contained of RBCs suspended in PBS and 1% of Triton-X 100, respectively. Subsequently, the plates were incubated for 1 h at 37 °C and then centrifuged at 800×g for 10 min at 4 °C (Sorvall ST 16R Centrifuge, Thermo Scientific). After centrifugation, the supernatant was carefully […] to new microtiter plates and the release of hemoglobin was measured at 540 nm (Multiskan™ GO Microplate Spectrophotometer, Thermo Scientific). All experiments were conducted in triplicate.

[2] = tested on: C. albicans ATCC 10231 biofilm; format: cell-based, Candida albicans; conditions: ATCC 10231, 24 h
Method: (§1) The minimum inhibitory concentrations (MICs) of test compounds were assessed by broth microdilution method on 96-well plates, according to the guidelines of Clinical and Laboratory Standards Institute (CLSI). For this purpose, reference strains of bacteria: S. aureus ATCC 25923, E. faecalis PCM 2673, E. coli ATCC 25922, and P. aeruginosa ATCC 9027; and fungus: C. albicans ATCC 10231 were used (The Polish Collection of Microorganism, Polish Academy of Sciences, Wrocław, Poland). Bacteria at initial inoculums of 0.5 × 10^5 CFU/mL in Mueller Hinton Broth (MHB), and fungi at initial inoculums of 2 × 10^3 CFU/mL in RPMI-1640, were exposed to the compounds over the concentration range of 1–512 μg/mL. The polystyrene plates were incubated at 37 °C for 18 h with bacteria and for 24 h with C. albicans. The MIC was taken as the lowest concentration at which a noticeable growth of microorganisms was inhibited. Minimum biofilm eradication concentrations (MBECs) were determined using a previously described protocol. For this purpose, 96-well polystyrene flat-bottom plates and a resazurin (7-hydroxy-3H-phenoxazin-3-one 10-oxide) were used. In this assay, a specific feature of resazurin is utilized, which upon the contact with living cells is metabolized and reduced from the basic blue form to pink resorufin. Briefly, 24-h cultures of microorganisms were diluted 1,000-fold and 100 μL of that suspension was added into the test plates. After 24 h of incubation at 37 °C, the wells of the plates were rinsed three times with phosphate buffer saline (PBS) to remove non-adherent cells. Subsequently, 100 μL of test compounds in concentration range (diluted in appropriate media) were added to each well. After 24 h of incubation at 37 °C, 20 μL of the resazurin (4 mg/mL) was added. The MBEC was read after 1 h. Additionally, anti-adhesive properties of the compounds were also analyzed. The assay was conducted on 96-well polystyrene flat-bottom plates. The preparation of inoculums was followed by a 500-fold dilution of 24-h cultures of microorganisms. Briefly, to evaluate the effect of the peptides in preventing biofilm formation, 50 μL of compounds in concentration range, diluted in appropriate medium, were prepared. Subsequently, the 50 μL of the bacterial/fungal inoculums were added to reach the same microbial density as that in MBEC assay. After 24 h of incubation at 37 °C, the wells were rinsed three times with PBS and the fresh media with resazurin (0.6 mg/mL) were added. Then, after 1 h of incubation, the minimum biofilm inhibitory concentrations (MBIC) were read. MBECs as well as MBICs were determined as the lowest concentration at which the reduction of resazurin was lower or equal (10% ± 0.5%) as compared to positive (100%) and negative (0%) controls. All experiments were performed in triplicate.

[3] = tested on: C. albicans ATCC 10231; format: cell-based, Candida albicans; conditions: ATCC 10231, 24 h
Method: as §1

[4] = tested on: C. albicans ATCC 10231 biofilm formation; format: cell-based, Candida albicans; conditions: ATCC 10231, 24 h
Method: as §1

[5] = tested on: E. faecalis PCM 2673; format: cell-based, Enterococcus faecalis; conditions: PCM 2673, 18 h
Method: as §1

[6] = tested on: E. faecalis PCM 2673 biofilm formation; format: cell-based, Enterococcus faecalis; conditions: 24 h
Method: as §1

[7] = tested on: E. faecalis PCM 2673 biofilm; format: cell-based, Enterococcus faecalis; conditions: 24 h
Method: as §1

[8] = in vitro; format: in vitro ADME; conditions: bovine, serum
Method: To assess serum stability, the peptides (0.5 mg) were dissolved in 4 mL of 25% (v/v) fetal bovine serum (FBS) in PBS and incubated at 37 °C. The aliquots of 100 μL of the test samples were transferred to 96-well polystyrene plates in triplicate for each time point. Samples were quenched at zero time (t0) and after 6 h of incubation at 37 °C by addition of 100 μL of ice-cold acetonitrile and stored at 4 °C for 10 min. Afterwards, the samples were centrifuged at 13,000×g for 20 min at 4 °C and diluted 1:1 with HPLC-grade water. All samples were analyzed using the Waters Alliance e2695 system with Waters Acquity QDa Detector (software–Empower®3). Analyses were conducted on an Agilent Zorbax SB-C18 RP-18 column (4.6 × 50 mm, 1.8-μm particle size, 80-Å pore size) using a linear 30–60% acetonitrile (B) gradient in deionized water (A) over 6 min at 25.0 ± 0.1 °C, at a flow rate of 0.5 mL/min and MS working in selected ion recording (SIR) mode (A—0.1% aqueous formic acid (FA) and B—0.1% FA in acetonitrile). The percentage of peptide remaining intact was calculated from peak areas of samples at t0 and after 6 h of incubation in serum (the % of remaining peptide = peak area after 6 h/peak area at t0). The mass-to-charge ratios selected for SIR mode were based on values obtained from full spectrum analysis of each peptide and are presented in Table 1.

[9] = tested on: E. coli ATCC 25922 biofilm formation; format: cell-based, Escherichia coli; conditions: ATCC 25922, 24 h
Method: as §1

[10] = tested on: E. coli ATCC 25922 biofilm; format: cell-based, Escherichia coli; conditions: ATCC 25922, 24 h
Method: as §1

[11] = tested on: E. coli ATCC 25922; format: cell-based, Escherichia coli; conditions: ATCC 25922, 18 h
Method: as §1

[12] = tested on: P. aeruginosa ATCC 9027 biofilm; format: cell-based, Pseudomonas aeruginosa; conditions: ATCC 9027, 24 h
Method: as §1

[13] = tested on: P. aeruginosa ATCC 9027; format: cell-based, Pseudomonas aeruginosa; conditions: ATCC 9027, 18 h
Method: as §1

[14] = tested on: P. aeruginosa ATCC 9027 biofilm formation; format: cell-based, Pseudomonas aeruginosa; conditions: ATCC 9027, 24 h
Method: as §1

[15] = tested on: S. aureus ATCC 25923 biofilm formation; format: cell-based, Staphylococcus aureus; conditions: ATCC 25923, 24 h
Method: as §1

[16] = tested on: S. aureus ATCC 25923; format: cell-based, Staphylococcus aureus; conditions: ATCC 25923, 18 h
Method: as §1

[17] = tested on: S. aureus ATCC 25923 biofilm; format: cell-based, Staphylococcus aureus; conditions: ATCC 25923, 24 h
Method: as §1

SMILES	Percentage of hemolysis at 1 μg/mL [1] [%]	Percentage of hemolysis at 2 μg/mL [1] [%]	Percentage of hemolysis at 4 μg/mL [1] [%]	Percentage of hemolysis at 8 μg/mL [1] [%]	Percentage of hemolysis at 16 μg/mL [1] [%]	Percentage of hemolysis at 32 μg/mL [1] [%]	Percentage of hemolysis at 64 μg/mL [1] [%]	Percentage of hemolysis at 128 μg/mL [1] [%]	Percentage of hemolysis at 256 μg/mL [1] [%]	MBEC, C. albicans ATCC 10231 [2] [µg/mL]	MIC, C. albicans ATCC 10231 [3] [µg/mL]	MBIC, C. albicans ATCC 10231 [4] [µg/mL]	MIC, E. faecalis PCM 2673 [5] [µg/mL]	MBIC, E. faecalis PCM 2673 [6] [µg/mL]	MBEC, E. faecalis PCM 2673 [7] [µg/mL]	remaining at 6 h, 0.125 mg/mL [8] [%]	MBIC, E. coli ATCC 25922 [9] [µg/mL]	MBEC, E. coli ATCC 25922 [10] [µg/mL]	MIC, E. coli ATCC 25922 [11] [µg/mL]	MBEC, P. aeruginosa ATCC 9027 [12] [µg/mL]	other results
CC[C@H](C)[C@H](NC(=O)[C@H](CCCCN)NC(=O)[C@H](CCCCN)NC(=O)[C@@H](NC(=O)[C@@H](NC(=O)[C@H](CC(=O)O)NC(=O)[C@H](C)NC(=O)[C@H](CC(C)C)NC(=O)CN)[C@@H](C)CC)[C@@H](C)CC)C(=O)N[C@@H](C)C(=O)N[C@@H](CCC(=O)O)C(=O)N[C@@H](CO)C(=O)N[C@@H](Cc1ccccc1)C(N)=O [Peptide F3A] (H-GLADIIKKIAESF-NH2)	0.1	0.1	0.0	0.0	0.0	0.0	0.0	0.0	0.3	> 512	128 (≈ 91.2 µM)	4	256 (≈ 182 µM)	256	> 512	38	256	256	128 (≈ 91.2 µM)	> 512	MIC, P. aeruginosa ATCC 9027 [13]: 512 µg/mL (≈ 365 µM); MBIC, P. aeruginosa ATCC 9027 [14]: 512 µg/mL; MBIC, S. aureus ATCC 25923 [15]: >512 µg/mL; MIC, S. aureus ATCC 25923 [16]: 512 µg/mL (≈ 365 µM); MBEC, S. aureus ATCC 25923 [17]: > 512 µg/mL
CC[C@H](C)[C@H](NC(=O)[C@H](C)NC(=O)[C@H](Cc1ccccc1)NC(=O)[C@H](CC(C)C)NC(=O)CN)C(=O)N[C@H](C(=O)N[C@@H](CCCCN)C(=O)N[C@@H](CCCCN)C(=O)N[C@H](C(=O)N[C@@H](C)C(=O)N[C@@H](CCC(=O)O)C(=O)N[C@@H](CO)C(=O)N[C@@H](Cc1ccccc1)C(N)=O)[C@@H](C)CC)[C@@H](C)CC [Peptide D4A] (H-GLFAIIKKIAESF-NH2)	0.2	0.3	0.3	0.3	0.3	1.5	6.6	23.2	61.0	512	64 (≈ 44.6 µM)	2	32 (≈ 22.3 µM)	32	128	44	8	32	8 (≈ 5.57 µM)	512	MIC, P. aeruginosa ATCC 9027 [13]: 64 µg/mL (≈ 44.6 µM); MBIC, P. aeruginosa ATCC 9027 [14]: 64 µg/mL; MBIC, S. aureus ATCC 25923 [15]: 16 µg/mL; MIC, S. aureus ATCC 25923 [16]: 16 µg/mL (≈ 11.1 µM); MBEC, S. aureus ATCC 25923 [17]: 16 µg/mL
